One test addresses cyclophilin A (Homo sapiens, UniProt P62937). As to the kind of experiment: Cyclophilin A TR-FRET competitive binding assay. To be noted: competition with CsA-Cy5 for His-tagged CypA, two-hour incubation. On the procedure: Cyclophilin A TR-FRET Competitive Binding Assay
Inhibitor potency was measured using a competitive binding assay with a time-resolved fluorescence resonance energy transfer (TR-FRET) readout. […] An IC50 value was calculated using a four-parameter logistic fit.

For test [1], the system named is Huh-7 HCV replicon cells (1b replicon). The test is described as follows: anti-HCV activity in Huh-7 cell line harboring a HCV replicon (luciferase readout). It is filed as cell-based. To be noted: for Replicon 1b % inhibition at 1 μM: 1b replicon, 1 μM compound.
Where [2] appears, read: Hepatitis C virus, Huh-7, 72 h, inhibition of viral replication, Huh-7 HCV replicon cells, 3 days, read-out: EC50.
Where [3] appears, read: Hepatitis C virus, Huh-7, read-out: Replicon 1b % inhibition at 1 μM, 1b replicon, 1 μM compound.
The mark [4] stands for this setting: inhibition of viral replication, Huh-7 HCV replicon cells, 3 days, read-out: EC50.

Read-outs that look alike come from different tables or passages of the source.

Sequence of cyclophilin A (P62937 whole entry, species assumed): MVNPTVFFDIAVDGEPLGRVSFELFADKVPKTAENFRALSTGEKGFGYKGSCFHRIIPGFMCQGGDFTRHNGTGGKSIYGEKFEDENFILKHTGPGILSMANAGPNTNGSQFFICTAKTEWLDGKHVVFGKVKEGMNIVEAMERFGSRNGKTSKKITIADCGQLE

On to `CC(=O)CC[C@@H]1C/C=C/c2cc3cc(ccc3cn2)[C@@H](C)NC(=O)[C@@H]2CCCN(N2)C(=O)[C@H](C)NC(=O)[C@H](C(C)C)OC1=O` (mixture of isomers) [Compound 14], for which the concentration for half-maximal inhibition (IC50) at cyclophilin A is less than 100 nM. For the same molecule, the EC50 in test [1] (setting [2]) is less than 1000 nM. Further, the inhibition at 1 µM in test [1] (setting [3]) stood at 100%.
For `CC(CC[C@@H]1C/C=C/c2cc3cc(ccc3cn2)[C@@H](C)NC(=O)[C@@H]2CCCN(N2)C(=O)[C@H](C)NC(=O)[C@H](C(C)C)OC1=O)=NOCCN1CCOCC1` (mixture of isomers) [Compound 15], in that order: less than 100 nM, less than 1000 nM and 98%.
For `CC(C)[C@@H]1OC(=O)[C@H](CCC(C)N(C)C)C/C=C/c2cc3cc(ccc3cn2)[C@@H](C)NC(=O)[C@@H]2CCCN(N2)C(=O)[C@H](C)NC1=O` (mixture of isomers) [Compound 16], in that order: less than 100 nM, 1100 to 10000 nM and 20%.
For `CC(C)[C@@H]1OC(=O)C2(/C=C/c3ccc4ccc(nc4c3)[C@@H](C)NC(=O)[C@@H]3CCCN(N3)C(=O)[C@H](C)NC1=O)CCCCO2` (mixture of isomers) [Compound 49], in that order: less than 100 nM, less than 1000 nM and 100%.
On cyclophilin A, `CC(C)[C@@H]1OC(=O)C2(/C=C/c3ccc4ccc(nc4c3)[C@@H](C)NC(=O)[C@]3(C)CCCN(N3)C(=O)[C@H](C)NC1=O)CCC(O)CC2` (mixture of isomers) [Compound 94] displayed an IC50 of less than 100 nM. Further, the concentration for a half-maximal effect (EC50) in test [1] (setting [2]) was less than 1000 nM. In addition, in test [1] (setting [3]), the inhibition at 1 µM is 94%.
`CC1/C=C/c2ccc3ccc(nc3c2)[C@@H](C)OC(=O)[C@@H]2CCCN(N2)C(=O)[C@H](C)NC(=O)[C@H](C(C)C)OC1` (single isomer, unassigned) [Compound 27] gave a half-maximal inhibitory concentration (IC50) on cyclophilin A of less than 100 nM. In test [1] (setting [2]), the EC50 was less than 1000 nM. Moreover, in test [1] (setting [3]), the inhibition at 1 µM turned out to be 92%.
Turning to `CC1/C=C/c2ccc3ccc(nc3c2)[C@@H](C)OC(=O)[C@@H]2CCCN(N2)C(=O)[C@H](C)NC(=O)[C@H](C(C)C)OC1` (single isomer, unassigned) [Compound 28], the IC50 at cyclophilin A was less than 100 nM. Besides, the “Replicon 1b % inhibition at 1 μM” value in test [1] (1 µM) stood at 99%. Further, in test [1] (setting [4]), the EC50 is less than 1000 nM.
As to `CC1/C=C/c2ccc3ccc(nc3c2)[C@@H](C)NC(=O)[C@@H]2CCCN(N2)C(=O)[C@H](C)NC(=O)[C@H](C(C)C)OC1` (single isomer, unassigned) [Compound 34], the IC50 on cyclophilin A was less than 100 nM. In test [1] (setting [2]), the EC50 is less than 1000 nM. In addition, the inhibition at 1 µM in test [1] (setting [3]) came to 91%.
For `CC1/C=C/c2ccc3ccc(nc3c2)[C@@H](C)NC(=O)[C@@H]2CCCN(N2)C(=O)[C@H](C)NC(=O)[C@H](C(C)C)OC1` (single isomer, unassigned) [Compound 35], in that order: less than 100 nM, less than 1000 nM and 88%.
For `COCC1NC(=O)C(C(C)C)OC(=O)C(C)(C)C=Cc2ccc3ccc(nc3c2)C(C)NC(=O)C2CCCN(N2)C1=O` (single isomer, unassigned) [Compound 39], in that order: 101 to 1000 nM, 1100 to 10000 nM and 16%.
Consider `CC(C)[C@@H]1OC(=O)C2(/C=C/c3ccc4ccc(nc4c3)[C@@H](C)NC(=O)[C@@H]3CCCN(N3)C(=O)[C@H](C)NC1=O)COCCO2` (single isomer, unassigned) [Compound 43], for which the IC50 at cyclophilin A is less than 100 nM. Besides, the “Replicon 1b % inhibition at 1 μM” value in test [1] was 99%. Besides, the half-maximal effective concentration (EC50) in test [1] (setting [4]) is less than 1000 nM.
For the molecule `CC(C)[C@@H]1OC(=O)C2(/C=C/c3ccc4ccc(nc4c3)[C@@H](C)NC(=O)[C@@H]3CCCN(N3)C(=O)[C@H](C)NC1=O)CN(C(=O)OC(C)(C)C)CCO2` (single isomer, unassigned) [Compound 45], the IC50 on cyclophilin A was less than 100 nM.
`CC(C)[C@@H]1OC(=O)C2(/C=C/c3ccc4ccc(nc4c3)[C@@H](C)NC(=O)[C@@H]3CCCN(N3)C(=O)[C@H](C)NC1=O)CCCOC2` (single isomer, unassigned) [Compound 50] yielded an IC50 on cyclophilin A of less than 100 nM. Also, in test [1] (setting [2]), the 50% effective concentration (EC50) is less than 1000 nM. In test [1] (setting [3]), the inhibition at 1 µM turned out to be 100%.
For `CC(C)[C@@H]1OC(=O)C2(/C=C/c3ccc4ccc(nc4c3)[C@@H](C)NC(=O)[C@@H]3CCCN(N3)C(=O)[C@H](C)NC1=O)CCCOC2` (single isomer, unassigned) [Compound 51], in that order: less than 100 nM, less than 1000 nM and 100%.
For `CC1NC(=O)C(C(C)C)OC(=O)C2(/C=C/c3ccc4ccc(nc4c3)C(C)NC(=O)C3CCCN(N3)C1=O)CCC(O)CC2` (single isomer, unassigned) [Compound 74], in test [1] (1 µM), the “Replicon 1b % inhibition at 1 μM” value is 100%. Also, in test [1] (setting [2]), the EC50 is less than 1000 nM.
As for `CC1NC(=O)C(C(C)C)OC(=O)C2(/C=C/c3ccc4ccc(nc4c3)C(C)NC(=O)C3CCCN(N3)C1=O)CCC(O)CC2` (single isomer, unassigned) [Compound 75], the “Replicon 1b % inhibition at 1 μM” value in test [1] (1 µM) worked out at 100%. The EC50 in test [1] (setting [4]) was less than 1000 nM.
For `CC1NC(=O)C(C(C)C)OC(=O)C2(/C=C/c3ccc4ccc(nc4c3)C(C)NC(=O)C3CCCN(N3)C1=O)CCC(O)CC2` (single isomer, unassigned) [Compound 76], in that order: 69% and less than 1000 nM.
Regarding `CC1NC(=O)C(C(C)C)OC(=O)C2(/C=C/c3ccc4ccc(nc4c3)C(C)NC(=O)C3CCCN(N3)C1=O)CCC(O)CC2` (single isomer, unassigned) [Compound 77], the “Replicon 1b % inhibition at 1 μM” value in test [1] (1 µM) is on record as 56%. Besides, in test [1] (setting [4]), the EC50 is less than 1000 nM.
`CC(C)[C@@H]1OC(=O)C2(/C=C/c3ccc4ccc(nc4c3)[C@@H](C)NC(=O)[C@@H]3CCCN(N3)C(=O)[C@H](C)NC1=O)COC(C)(C)CO2` (single isomer, unassigned) [Compound 100] registered an IC50 at cyclophilin A of less than 100 nM. Further, the “Replicon 1b % inhibition at 1 μM” value in test [1] turned out to be 100%. The EC50 in test [1] (setting [4]) is less than 1000 nM.
For the molecule `CC1NC(=O)C(C2CC2)OC(=O)C2(C=Cc3ccc4ccc(nc4c3)C(C)NC(=O)C3CCCN(N3)C1=O)CCC(O)C2` (single isomer, unassigned) [Compound 103], the IC50 at cyclophilin A was less than 100 nM. Moreover, in test [1] (1 µM), the “Replicon 1b % inhibition at 1 μM” value is 90%. The concentration giving a half-maximal response (EC50) in test [1] (setting [2]) is less than 1000 nM.
For the molecule `CC1NC(=O)C(C2CC2)OC(=O)C2(C=Cc3ccc4ccc(nc4c3)C(C)NC(=O)C3CCCN(N3)C1=O)CCC(O)C2` (single isomer, unassigned) [Compound 104], the IC50 at cyclophilin A was less than 100 nM. In addition, the “Replicon 1b % inhibition at 1 μM” value in test [1] (1 µM) came to 56%. In addition, the EC50 in test [1] (setting [4]) was less than 1000 nM.
At cyclophilin A, `CC(C)[C@@H]1OC(=O)C(C)(C)/C=C/c2ccc3ccc(nc3c2)[C@@H](C)OC(=O)[C@@H]2CCCN(N2)C(=O)[C@H](C)NC1=O` [Compound 19] showed an IC50 of less than 100 nM.
The same measure, in the same setting: the result for `CC(C)[C@H]1C(=O)N[C@@H](C)C(=O)N2CCC[C@H](N2)C(=O)O[C@H](C)c2ccc3cnc(cc3c2)/C=C/C(C)(C)C(=O)N1C` [Compound 22] reads less than 100 nM; that for `CC(C)[C@@H]1OC(=O)C(C)(C)/C=C/c2ccc3ccc(nc3c2)CN(C)C(=O)[C@@H]2CCCN(N2)C(=O)[C@H](C)NC1=O` [Compound 33], less than 100 nM.
As for `COC[C@@]1(C)/C=C/c2ccc3ccc(nc3c2)[C@@H](C)NC(=O)[C@@H]2CCCN(N2)C(=O)[C@H](C)NC(=O)[C@H](C(C)C)OC1=O` [Compound 36], at cyclophilin A, the IC50 was less than 100 nM.
Same read-out and setting: the result for `CC(C)[C@@H]1OC(=O)C(C)(C)/C=C/c2ccc3ccc(nc3c2)CNC(=O)[C@@H]2CCCN(N2)C(=O)[C@H](C)NC1=O` [Compound 37] reads less than 100 nM.
On the same count and under the same terms, the result for `COC[C@@]1(C)/C=C/c2ccc3ccc(nc3c2)[C@@H](C)N(C)C(=O)[C@@H]2CCCN(N2)C(=O)[C@H](C)NC(=O)[C@H](C(C)C)OC1=O` [Compound 38] reads less than 100 nM.
Consider `CC(C)[C@@H]1OC(=O)C2(/C=C/c3ccc4ccc(nc4c3)[C@@H](C)NC(=O)[C@@H]3CCCN(N3)C(=O)[C@H](C)NC1=O)COCCOC2` [Compound 57], for which the EC50 in test [1] (setting [2]) was less than 1000 nM. In addition, the inhibition at 1 µM in test [1] (setting [3]) was determined as 100%.
`COC[C@]1(C)/C=C/c2ccc3ccc(nc3c2)[C@@H](C)NC(=O)[C@@H]2CCCN(N2)C(=O)[C@H](C)NC(=O)[C@H](C(C)C)OC1=O` [Compound 58]: the IC50 on cyclophilin A was less than 100 nM.
In the case of `C[C@@H]1NC(=O)[C@H](C2CCC2)OC(=O)C2(/C=C/c3ccc4ccc(nc4c3)[C@@H](C)NC(=O)[C@@H]3CCCN(N3)C1=O)COCOC2` [Compound 64], the EC50 in test [1] (Hepatitis C virus, Huh-7, 72 h) is less than 1000 nM. The inhibition at 1 µM in test [1] (Hepatitis C virus, Huh-7, read-out: Replicon 1b % inhibition at 1 μM) was found to be 100%.
Turning to `CC(C)[C@@H]1OC(=O)C(C)(C)/C=C/c2cc3cc(ccc3cn2)[C@@H](C)NC(=O)[C@@H]2CCCN(N2)C(=O)[C@H](C)NC1=O` [Compound 69], the EC50 in test [1] (setting [2]) is less than 1000 nM. Moreover, the inhibition at 1 µM in test [1] (setting [3]) stood at 100%.
As to `CC(C)[C@@H]1OC(=O)C2(/C=C/c3ccc4ccc(nc4c3)[C@@H](C)NC(=O)[C@@H]3CCCN(N3)C(=O)[C@H](C)NC1=O)CCOCC2` [Compound 88], the 50% effective concentration (EC50) in test [1] (setting [2]) is less than 1000 nM. Further, in test [1] (setting [3]), the inhibition at 1 µM was 100%.
For `COC1CCC2(/C=C/c3ccc4ccc(nc4c3)[C@@H](C)NC(=O)[C@@H]3CCCN(N3)C(=O)[C@H](C)NC(=O)[C@H](C(C)C)OC2=O)CC1` (stereo partly shown) [Compound 92], in that order: less than 1000 nM and 100%.
For `CC(C)[C@@H]1OC(=O)C2(/C=C/c3ccc4ccc(nc4c3)[C@@H](C)NC(=O)[C@@H]3CCCN(N3)C(=O)[C@H](C)NC1=O)CCS(=O)(=O)CC2` [Compound 106], in that order: less than 1000 nM and 95%.

These data come from patent US9642889B2, “Macrocyclic inhibitors of Flaviviridae viruses” (Selcia Limited, priority 2012, dated 2017).
